These results are taken from ChEMBL document CHEMBL5038581, “Design, synthesis, and biological evaluation of novel dual inhibitors targeting lysine specific demethylase 1 (LSD1) and histone deacetylases (HDAC) for treatment of gastric cancer” (Eur J Med Chem, 2021).

One series addresses Histone deacetylase 1 (Homo sapiens, UniProt Q13547). Kind of series: Inhibition of HDAC1 (unknown origin) using Ac-peptide as substrate preincubated for 15 mins followed by substrate addition by fluorescence assay.
For another series, the target named is Histone deacetylase 5 (Homo sapiens, UniProt Q9UQL6). Nature of the series: Inhibition of HDAC5 (unknown origin) using Ac-peptide as substrate preincubated for 15 mins followed by substrate addition by fluorescence assay.
Histone deacetylase 5, sequence (Q9UQL6 whole entry): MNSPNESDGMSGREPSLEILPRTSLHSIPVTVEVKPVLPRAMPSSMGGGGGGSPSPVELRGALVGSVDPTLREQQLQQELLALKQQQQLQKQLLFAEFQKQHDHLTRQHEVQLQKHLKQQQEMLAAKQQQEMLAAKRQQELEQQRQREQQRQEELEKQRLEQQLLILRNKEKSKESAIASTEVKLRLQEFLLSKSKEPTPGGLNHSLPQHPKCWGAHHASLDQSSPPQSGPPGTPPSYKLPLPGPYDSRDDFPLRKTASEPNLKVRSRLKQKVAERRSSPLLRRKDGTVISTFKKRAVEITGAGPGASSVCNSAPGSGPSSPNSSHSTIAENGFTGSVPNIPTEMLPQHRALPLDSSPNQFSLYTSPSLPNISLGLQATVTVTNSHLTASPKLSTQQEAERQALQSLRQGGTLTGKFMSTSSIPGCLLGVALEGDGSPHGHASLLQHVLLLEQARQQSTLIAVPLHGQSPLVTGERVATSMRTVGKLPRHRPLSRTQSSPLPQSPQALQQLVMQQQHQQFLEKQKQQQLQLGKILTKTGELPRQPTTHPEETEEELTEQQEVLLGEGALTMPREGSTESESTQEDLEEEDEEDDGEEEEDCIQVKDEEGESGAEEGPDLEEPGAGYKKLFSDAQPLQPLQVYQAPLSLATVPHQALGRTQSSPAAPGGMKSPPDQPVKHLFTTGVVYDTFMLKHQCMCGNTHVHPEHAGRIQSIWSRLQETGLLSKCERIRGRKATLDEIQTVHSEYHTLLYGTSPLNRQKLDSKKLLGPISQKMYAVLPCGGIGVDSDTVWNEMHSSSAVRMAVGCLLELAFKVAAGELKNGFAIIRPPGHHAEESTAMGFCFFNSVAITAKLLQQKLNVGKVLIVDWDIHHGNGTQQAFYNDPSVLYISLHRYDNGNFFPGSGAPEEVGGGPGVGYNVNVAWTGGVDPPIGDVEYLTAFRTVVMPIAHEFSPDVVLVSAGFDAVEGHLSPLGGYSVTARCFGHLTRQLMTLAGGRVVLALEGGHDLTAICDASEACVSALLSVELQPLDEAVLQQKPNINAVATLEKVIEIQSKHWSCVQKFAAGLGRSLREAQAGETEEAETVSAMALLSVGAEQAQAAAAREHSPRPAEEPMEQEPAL
Series [1] addresses T1, Protein deacetylase HDAC6 (Homo sapiens, UniProt Q9UBN7).
T1 sequence (Q9UBN7 whole entry): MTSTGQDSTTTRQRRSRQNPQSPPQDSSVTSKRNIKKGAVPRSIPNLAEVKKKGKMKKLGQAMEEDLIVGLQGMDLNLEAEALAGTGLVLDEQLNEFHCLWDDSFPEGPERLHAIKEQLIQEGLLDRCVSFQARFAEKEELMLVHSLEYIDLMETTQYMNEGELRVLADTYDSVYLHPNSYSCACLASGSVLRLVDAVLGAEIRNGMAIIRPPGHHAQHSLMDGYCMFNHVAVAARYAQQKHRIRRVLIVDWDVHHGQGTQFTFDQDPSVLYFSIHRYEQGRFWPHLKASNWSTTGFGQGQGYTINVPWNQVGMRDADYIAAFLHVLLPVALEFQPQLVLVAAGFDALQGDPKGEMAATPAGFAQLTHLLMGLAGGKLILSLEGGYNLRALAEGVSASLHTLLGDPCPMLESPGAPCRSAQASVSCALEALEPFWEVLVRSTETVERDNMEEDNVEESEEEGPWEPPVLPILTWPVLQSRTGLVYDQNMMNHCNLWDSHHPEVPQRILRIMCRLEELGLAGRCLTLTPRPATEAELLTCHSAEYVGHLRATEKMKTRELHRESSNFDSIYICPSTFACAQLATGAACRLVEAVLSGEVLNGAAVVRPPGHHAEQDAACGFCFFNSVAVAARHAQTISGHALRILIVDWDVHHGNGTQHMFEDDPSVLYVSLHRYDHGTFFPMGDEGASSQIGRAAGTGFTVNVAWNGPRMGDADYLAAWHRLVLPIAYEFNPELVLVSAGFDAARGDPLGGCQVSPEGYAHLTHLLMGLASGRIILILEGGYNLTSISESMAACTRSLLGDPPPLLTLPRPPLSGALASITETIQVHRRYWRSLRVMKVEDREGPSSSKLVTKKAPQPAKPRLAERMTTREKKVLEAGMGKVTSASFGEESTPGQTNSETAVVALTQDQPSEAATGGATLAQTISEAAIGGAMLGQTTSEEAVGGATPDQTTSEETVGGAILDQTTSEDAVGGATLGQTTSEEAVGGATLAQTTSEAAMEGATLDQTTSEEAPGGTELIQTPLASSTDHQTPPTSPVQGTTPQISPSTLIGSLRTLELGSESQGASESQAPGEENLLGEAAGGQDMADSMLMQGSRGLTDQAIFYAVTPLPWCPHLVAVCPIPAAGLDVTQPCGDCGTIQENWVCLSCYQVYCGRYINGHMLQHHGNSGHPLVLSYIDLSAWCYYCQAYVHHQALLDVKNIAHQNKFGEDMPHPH
Kind of series: Inhibition of HDAC6 (unknown origin) using Ac-peptide as substrate preincubated for 15 mins followed by substrate addition by fluorescence assay.

The nature of series [2]: Metabolic stability in human liver microsomes assessed as half life in presence of NADPH at 1 uM by LC-MS/MS analysis. Type of series: ADME, Microsome. A general note: Liver microsomes are a subcellular fraction often used to study metabolism.
Another series addresses CYP2C9 (Homo sapiens, UniProt P11712). Kind of series: Inhibition of CYP2C9 (unknown origin) at 10 uM using diclofenac as substrate relative to control. Format: ADME. The settings on record: probe diclofenac.
In series [3] the target is Amine oxidase [flavin-containing] A (Homo sapiens, UniProt P21397). Nature of the series: Inhibition of human recombinant MAO-A by multimode plate reader assay.
Amine oxidase [flavin-containing] A, sequence (P21397 whole entry): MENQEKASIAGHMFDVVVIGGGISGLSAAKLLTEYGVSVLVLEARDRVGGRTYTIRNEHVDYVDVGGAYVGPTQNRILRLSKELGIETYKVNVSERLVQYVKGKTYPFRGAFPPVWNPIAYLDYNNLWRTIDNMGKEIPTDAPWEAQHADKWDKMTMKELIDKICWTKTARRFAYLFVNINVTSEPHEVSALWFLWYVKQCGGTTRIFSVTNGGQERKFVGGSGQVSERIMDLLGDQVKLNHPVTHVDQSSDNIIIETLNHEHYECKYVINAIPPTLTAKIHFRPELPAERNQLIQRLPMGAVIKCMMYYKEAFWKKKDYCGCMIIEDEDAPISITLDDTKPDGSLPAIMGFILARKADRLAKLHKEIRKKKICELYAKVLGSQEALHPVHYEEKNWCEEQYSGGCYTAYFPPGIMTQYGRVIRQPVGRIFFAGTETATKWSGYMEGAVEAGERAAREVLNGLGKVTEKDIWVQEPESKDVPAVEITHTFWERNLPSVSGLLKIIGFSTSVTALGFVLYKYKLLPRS
Series [4] has as its target Amine oxidase [flavin-containing] B (Homo sapiens, UniProt P27338). Nature of the series: Inhibition of human recombinant MAO-B by multimode plate reader assay.
A further series addresses Histone deacetylase 8 (Homo sapiens, UniProt Q9BY41). Nature of the series: Inhibition of HDAC8 (unknown origin) using Ac-peptide as substrate preincubated for 15 mins followed by substrate addition by fluorescence based microplate reader analysis.
Another series addresses Histone deacetylase 11 (Homo sapiens, UniProt Q96DB2). Nature of the series: Inhibition of HDAC11 (unknown origin) using Ac-peptide as substrate preincubated for 15 mins followed by substrate addition by fluorescence based microplate reader analysis.
For series [5], the system named is MGC-803. Nature of the series: Induction of apoptosis in human MGC-803 cells assessed as apoptotic cells at 2.5 uM incubated for 48 hrs by annexin V-FITC and PI staining based flowcytometry analysis (Rvb =4.9 %). Format: functional.
For series [6], the system named is MGC-803. Nature of the series: Induction of apoptosis in human MGC-803 cells assessed as increase in Bax protein expression at 1.25 to 7.5 uM incubated for 48 hrs by western blot analysis. The conditions noted are these: dose 1.25-7.5 µM. Format: functional, cell-based. (In western blotting, separated proteins are transferred to a membrane and probed.)
The subject of series [7] is MGC-803. Nature of the series: Induction of apoptosis in human MGC-803 cells assessed as decrease in Bcl2 protein expression at 1.25 to 7.5 uM incubated for 48 hrs by western blot analysis. Type of series: functional, cell-based. The settings on record: dose 1.25-7.5 µM.
In series [8] the test system is MGC-803. Kind of series: Inhibition of cell migration in human MGC-803 cells 0.2 to 0.8 uM up to 24 hrs by wound healing assay. The settings on record: dose 0.2-0.8 µM, time hrs <=24. Format: functional, cell-based.
In another series the target is CYP2C19 (Homo sapiens, UniProt P33261). Kind of series: Inhibition of CYP2C19 (unknown origin) at 10 uM using S-mephenytoin as substrate relative to control. The settings on record: probe S-mephenytoin. Format: ADME.
In a further series the target is CYP2D6 (Homo sapiens, UniProt P10635). Kind of series: Inhibition of CYP2D6 (unknown origin) at 10 uM using dextromethorphan as substrate relative to control. Type of series: ADME. The conditions noted are these: probe dextromethorphan.
CYP2D6, sequence (P10635 whole entry): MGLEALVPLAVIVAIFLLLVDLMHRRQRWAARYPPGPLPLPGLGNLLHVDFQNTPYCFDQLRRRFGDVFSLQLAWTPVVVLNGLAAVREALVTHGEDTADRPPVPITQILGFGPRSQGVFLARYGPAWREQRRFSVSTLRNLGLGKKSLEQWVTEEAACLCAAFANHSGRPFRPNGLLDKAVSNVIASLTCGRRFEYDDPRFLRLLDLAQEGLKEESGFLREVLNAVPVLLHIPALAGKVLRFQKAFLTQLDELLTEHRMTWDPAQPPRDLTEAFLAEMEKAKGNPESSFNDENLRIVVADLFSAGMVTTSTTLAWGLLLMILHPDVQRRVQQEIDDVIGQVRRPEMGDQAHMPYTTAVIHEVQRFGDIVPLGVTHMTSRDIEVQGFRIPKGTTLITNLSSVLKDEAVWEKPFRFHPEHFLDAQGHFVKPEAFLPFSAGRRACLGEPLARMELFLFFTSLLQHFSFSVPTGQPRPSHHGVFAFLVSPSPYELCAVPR
Another series addresses CYP3A4 (Homo sapiens, UniProt P08684). Kind of series: Inhibition of CYP3A4 (unknown origin) at 10 uM using testosterone as substrate relative to control. Type of series: ADME. The conditions noted are these: probe testosterone.
A short description of series [9]: Metabolic stability in rat liver microsomes assessed as half life in presence of NADPH at 1 uM by LC-MS/MS analysis. Type of series: ADME, Microsome.
Series [10] can be described thus: Metabolic stability in human liver microsomes assessed as intrinsic clearance in presence of NADPH at 1 uM by LC-MS/MS analysis. Format: ADME, Microsome. The conditions noted are these: read-out: CLH.
Series [11] is described as follows: Metabolic stability in rat liver microsomes assessed as intrinsic clearance in presence of NADPH at 1 uM by LC-MS/MS analysis. The settings on record: read-out: CLH. Format: ADME, Microsome.
A further series relates to HCT-116. Kind of series: cells. The settings on record: Homo sapiens, HCT-116, 72 h.
Series [12] deals with MGC-803. Kind of series: cells. The settings on record: Homo sapiens, MGC-803, 72 h.

Bounds are passed on as bounds.

Amine oxidase [flavin-containing] B, sequence (P27338 whole entry): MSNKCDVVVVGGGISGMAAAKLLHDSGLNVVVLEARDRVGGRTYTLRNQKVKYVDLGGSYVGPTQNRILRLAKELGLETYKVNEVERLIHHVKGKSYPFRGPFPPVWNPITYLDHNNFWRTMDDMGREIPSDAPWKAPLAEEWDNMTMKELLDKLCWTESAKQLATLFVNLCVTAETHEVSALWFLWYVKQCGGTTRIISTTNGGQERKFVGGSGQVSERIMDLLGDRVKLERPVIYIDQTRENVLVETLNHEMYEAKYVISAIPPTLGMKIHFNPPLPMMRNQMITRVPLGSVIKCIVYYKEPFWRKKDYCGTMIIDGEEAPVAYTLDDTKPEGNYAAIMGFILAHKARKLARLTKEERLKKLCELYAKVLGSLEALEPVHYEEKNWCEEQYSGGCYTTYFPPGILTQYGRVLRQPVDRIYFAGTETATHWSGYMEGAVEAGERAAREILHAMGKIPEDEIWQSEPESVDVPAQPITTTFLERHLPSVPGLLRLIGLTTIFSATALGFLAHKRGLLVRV
CYP2C9, sequence (P11712 whole entry): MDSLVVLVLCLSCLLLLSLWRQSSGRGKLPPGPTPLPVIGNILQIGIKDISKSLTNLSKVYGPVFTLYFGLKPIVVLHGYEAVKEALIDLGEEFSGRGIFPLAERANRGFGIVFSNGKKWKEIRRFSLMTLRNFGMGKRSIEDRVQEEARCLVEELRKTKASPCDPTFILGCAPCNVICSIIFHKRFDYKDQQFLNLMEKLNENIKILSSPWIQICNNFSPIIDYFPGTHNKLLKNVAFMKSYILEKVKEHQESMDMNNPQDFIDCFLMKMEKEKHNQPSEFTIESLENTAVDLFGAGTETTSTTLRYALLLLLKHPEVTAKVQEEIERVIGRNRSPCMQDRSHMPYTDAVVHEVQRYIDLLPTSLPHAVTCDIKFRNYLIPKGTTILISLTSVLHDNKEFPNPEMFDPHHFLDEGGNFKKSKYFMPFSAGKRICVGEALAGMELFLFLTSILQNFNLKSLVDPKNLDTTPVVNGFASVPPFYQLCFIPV
Histone deacetylase 1, sequence (Q13547 whole entry): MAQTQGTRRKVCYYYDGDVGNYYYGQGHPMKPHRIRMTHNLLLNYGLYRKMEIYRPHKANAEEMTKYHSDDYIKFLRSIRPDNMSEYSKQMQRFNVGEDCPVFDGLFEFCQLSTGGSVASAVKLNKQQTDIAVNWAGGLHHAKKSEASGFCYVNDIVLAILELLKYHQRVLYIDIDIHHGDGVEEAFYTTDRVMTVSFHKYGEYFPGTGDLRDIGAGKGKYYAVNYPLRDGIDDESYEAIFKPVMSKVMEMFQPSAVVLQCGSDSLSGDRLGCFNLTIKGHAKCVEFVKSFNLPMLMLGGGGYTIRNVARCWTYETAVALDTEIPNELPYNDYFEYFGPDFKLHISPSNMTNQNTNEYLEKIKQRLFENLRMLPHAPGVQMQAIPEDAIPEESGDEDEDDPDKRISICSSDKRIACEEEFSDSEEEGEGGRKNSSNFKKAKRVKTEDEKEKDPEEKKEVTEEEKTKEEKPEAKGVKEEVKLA
Histone deacetylase 8, sequence (Q9BY41 whole entry): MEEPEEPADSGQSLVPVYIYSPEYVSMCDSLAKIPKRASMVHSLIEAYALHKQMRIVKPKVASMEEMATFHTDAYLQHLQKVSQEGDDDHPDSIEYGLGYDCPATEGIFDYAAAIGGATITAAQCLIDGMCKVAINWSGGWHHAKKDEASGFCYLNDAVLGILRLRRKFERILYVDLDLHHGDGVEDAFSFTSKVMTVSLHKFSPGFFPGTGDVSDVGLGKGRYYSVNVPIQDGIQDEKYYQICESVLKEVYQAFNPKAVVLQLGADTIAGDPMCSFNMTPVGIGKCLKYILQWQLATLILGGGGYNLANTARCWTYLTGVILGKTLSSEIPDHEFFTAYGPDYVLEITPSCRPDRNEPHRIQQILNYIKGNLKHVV
CYP3A4, sequence (P08684 whole entry): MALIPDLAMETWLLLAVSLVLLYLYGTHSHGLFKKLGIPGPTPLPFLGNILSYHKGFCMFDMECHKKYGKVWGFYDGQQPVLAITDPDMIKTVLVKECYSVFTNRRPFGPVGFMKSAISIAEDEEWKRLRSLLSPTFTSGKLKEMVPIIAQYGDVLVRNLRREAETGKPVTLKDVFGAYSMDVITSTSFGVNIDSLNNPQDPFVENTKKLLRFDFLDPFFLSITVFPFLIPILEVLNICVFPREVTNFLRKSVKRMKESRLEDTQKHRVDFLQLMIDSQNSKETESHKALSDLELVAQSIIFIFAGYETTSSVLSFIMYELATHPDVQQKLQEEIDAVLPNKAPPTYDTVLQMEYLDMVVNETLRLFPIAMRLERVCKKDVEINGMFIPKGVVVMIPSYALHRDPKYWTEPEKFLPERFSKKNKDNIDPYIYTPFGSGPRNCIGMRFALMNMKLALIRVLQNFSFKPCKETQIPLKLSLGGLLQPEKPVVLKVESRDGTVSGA
Histone deacetylase 11, sequence (Q96DB2 whole entry): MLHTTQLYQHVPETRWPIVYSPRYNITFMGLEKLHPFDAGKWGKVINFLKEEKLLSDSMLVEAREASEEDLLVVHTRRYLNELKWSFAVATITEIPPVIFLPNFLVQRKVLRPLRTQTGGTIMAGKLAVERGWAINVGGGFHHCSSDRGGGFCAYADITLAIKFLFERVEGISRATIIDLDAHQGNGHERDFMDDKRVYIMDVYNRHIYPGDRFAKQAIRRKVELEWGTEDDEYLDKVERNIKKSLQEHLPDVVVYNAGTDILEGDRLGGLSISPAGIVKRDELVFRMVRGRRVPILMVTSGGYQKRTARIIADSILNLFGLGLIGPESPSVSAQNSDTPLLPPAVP

Usually IC50 stands for the midpoint of a concentration-inhibition curve. As a reminder, the half-life is the time in which the quantity being followed falls by half. The inhibition is the drop in the measured response relative to a control, in per cent. In the case of `Cc1ccc(-c2cc(/C=C/c3ccc(C(=O)NO)cc3)ccn2)c(F)c1`, the IC50 against Histone deacetylase 1 was 370 nM; on Histone deacetylase 5 it was over 10000 nM; in series [1] it was 15 nM; in [3] it was over 100000 nM; in series [4], over 100000 nM; against Histone deacetylase 8 it was 8780 nM. The IC50 against Histone deacetylase 11 is 4930 nM; with HCT-116, 800 nM; with MGC-803 [12], 770 nM. In addition, the half-life at 1 µM in series [2] is 51.3 min; in series [9], 17.2 min. The inhibition at 10 µM against CYP2C9 was determined as 11.7%; against CYP2C19, 22.8%; against CYP2D6, 5.8%; against CYP3A4, 47.6%. Further, the Activity with MGC-803 [5] is 77.9%; with MGC-803 [6], “Dose-Dependent Effect”; in the series with MGC-803 [7] it was “Dose-Dependent Effect”. In addition, in the series on MGC-803 [8], the inhibition entry is “Dose-Dependent Effect”. The microsomal CLint at 1 µM in series [10] was 67.4 µL/min/mg; in series [11], 202 µL/min/mg.

As to `O=C(NO)c1ccc(/C=C/c2ccnc(-c3ccccc3O)c2)cc1`, the IC50 against Histone deacetylase 1 was 220 nM; against Histone deacetylase 5, over 10000 nM; in series [1] it was 47 nM; in [3], 34100 nM; in [4] it was 69400 nM; against Histone deacetylase 8, 4620 nM. Besides, the IC50 against Histone deacetylase 11 is over 10000 nM; with HCT-116 it was 1450 nM; with MGC-803 [12] it was 1420 nM. For the same compound, the half-life at 1 µM in series [2] worked out at 33 min; in series [9] it was 6.9 min. The inhibition at 10 µM was 13.1% against CYP2C9, 18.7% on CYP2C19, 15% against CYP2D6 and 87.9% at CYP3A4. Besides, the Activity in the series with MGC-803 [5] is 33.2%; with MGC-803 [6] it was “Dose-Dependent Effect”; in the series with MGC-803 [7], “Dose-Dependent Effect”. In the series with MGC-803 [8], the inhibition entry was “Dose-Dependent Effect”. The results for the microsomal CLint at 1 µM in series [10] and in [11] were 105 µL/min/mg and 505 µL/min/mg, respectively.
